Measured values as given in the supplement of paper PMC5844555.

What was measured:
Assay in all cases: 3' UTR reporter interaction score (median-centred robust z-score of log2 firefly/Renilla activity); higher = less repression of the 3' UTR reporter
Conditions in all cases: HEK293T; 48 h
[1] = test system: TP53
Outline: (§1)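 The interaction score is based on the log-transformed firefly/Renilla luciferase ratio, scaled as a robust z-score within each plate by median and median absolute deviation and median-centred for each miRNA; more negative scores indicate interaction. It was averaged over at least two independent screens. Readings were taken 48 h after HEK293T cells (10,000/well, 96-well plates) were co-transfected by DharmaFECT Duo with 100 ng firefly luc2P 3' UTR reporter, 20 ng Renilla pRL-TK and 2.5 pmol miRNA mimic.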

[2] = test system: MYB
Outline: as §1

[3] = test system: EZH2
Outline: as §1

[4] = test system: MYCN
Outline: as §1

[5] = test system: PHOX2B
Outline: as §1

[6] = test system: HRAS
Outline: as §1

[7] = test system: RB1
Outline: as §1

[8] = test system: MYC
Outline: as §1

[9] = test system: FBXW7
Outline: as §1

[10] = test system: MYT1L
Outline: as §1

[11] = test system: PHF6
Outline: as §1

[12] = test system: BRCA2
Outline: as §1

[13] = test system: NOTCH1
Outline: as §1

[14] = test system: ZEB2
Outline: as §1

Sequence | 3' UTR reporter interaction score [1] | 3' UTR reporter interaction score [2] | 3' UTR reporter interaction score [3] | 3' UTR reporter interaction score [4] | 3' UTR reporter interaction score [5] | 3' UTR reporter interaction score [6] | 3' UTR reporter interaction score [7] | 3' UTR reporter interaction score [8] | 3' UTR reporter interaction score [9] | 3' UTR reporter interaction score [10] | 3' UTR reporter interaction score [11] | 3' UTR reporter interaction score [12] | 3' UTR reporter interaction score [13] | 3' UTR reporter interaction score [14]
CUCUAGAGGGAAGCACUUUCUCU | -0.432 | 2.18 | -0.139 | -0.181 | -2.05 | 1.4 | -0.223 | 0.549 | -2.17 | 0.381 | -0.193 | -0.0386 | 0.176 | -0.685
CUCUAGAGGGAAGCGCUUUCUGUU | 0.361 | 1.71 | -0.269 | -0.278 | -1.2 | -0.0223 | -0.121 | 0.337 | -0.944 | 0.721 | -0.0745 | -0.378 | 1.16 | 0.37
CUCUUGAGGGAAGCACUUUCUGUU | 0.305 | 1.52 | 1.02 | 0.894 | -0.0184 | -0.664 | -0.331 | -0.277 | 1.21 | 0.407 | -2.75 | 0.199 | -0.119 | -0.69
CUGAAGUGAUGUGUAACUGAUCAG | 0.516 | -1.34 | 0.809 | -0.441 | -1.07 | 0.253 | -0.534 | 0.252 | -0.0116 | 1.21 | -0.442 | -1.33 | 2.11 | -0.764
CUGACCUAUGAAUUGACAGCC | 0.334 | 0.682 | -0.124 | 1.31 | -1.28 | 0.344 | -2.94 | 1.2 | -0.577 | 0.445 | -3.78 | -0.668 | 0.282 | -6.22
CUGCAAAGGGAAGCCCUUUCU | 0.104 | 1.16 | -3.8 | 1.29 | -0.887 | 0.112 | 1.27 | 1.15 | -3.15 | 0.529 | -2.67 | -0.0732 | -1.22 | -4.11
CUGGACUUAGGGUCAGAAGGCC | -0.836 | 1.31 | -0.857 | 0.447 | 1.18 | 0.067 | 1.37 | -0.781 | -0.885 | 0.968 | 0.77 | -1.05 | -1.28 | 2.31
CUGGACUUGGAGUCAGAAGGCC | -0.688 | 1.36 | -1.01 | 0.91 | 0.64 | 0.243 | -0.493 | -0.585 | -1.21 | 1.12 | 0.484 | -0.913 | -1.42 | 1.96
CUGGAUGGCUCCUCCAUGUCU | 0.127 | 0.532 | -1.36 | 1.88 | 1.08 | -0.334 | -2.12 | -0.501 | 0.945 | -0.148 | 1.87 | -1.72 | 0.182 | 0.281
CUGGCCCUCUCUGCCCUUCCGU | -0.27 | 0.857 | 0.421 | 1.01 | -0.839 | 1.31 | -0.329 | 1.14 | -0.17 | 0.19 | -2.64 | 0.17 | -0.752 | 0.72
CUGGGAUCUCCGGGGUCUUGGUU | -1.29 | -0.958 | -0.155 | 0.56 | 0.484 | -0.593 | 2.57 | 0.773 | 0.0113 | -0.147 | -0.552 | -0.371 | -0.177 | -0.251
CUGUGCGUGUGACAGCGGCUGA | 0.618 | 1.02 | -0.315 | 0.24 | -2.14 | -0.943 | 1.29 | -0.0999 | 0.121 | -2.16 | 0.722 | -0.102 | 0.0936 | 2.18
CUUCUUGUGCUCUAGGAUUGU | -0.0486 | 0.218 | 0.0594 | 0.82 | -1.49 | 0.138 | 0.605 | 0.759 | -1.11 | -0.427 | -0.418 | -1.63 | -0.719 | 0.0232
CUUGGUUCAGGGAGGGUCCCCA | -0.22 | 0.238 | 0.379 | 0.421 | 0.231 | -0.543 | -0.223 | -0.0193 | -2.49 | 0.48 | 0.112 | -0.342 | -0.824 | 1.64
CUUUCAGUCGGAUGUUUACAGC | 0.358 | 0.713 | -0.714 | 0 | -0.851 | 0.423 | 0.295 | -0.326 | -0.0926 | -0.118 | -0.685 | 0.0637 | 0.359 | -0.248
CUUUCAGUCGGAUGUUUGCAGC | -0.309 | 0.557 | -0.356 | -0.166 | 0.68 | 0.271 | -0.473 | 0.164 | -0.137 | 0.0662 | -0.502 | -0.362 | 0.454 | 0.565
CUUUUUGCGGUCUGGGCUUGC | -0.0822 | 0.803 | 0.547 | 0.522 | -0.0143 | 0.493 | -0.184 | 0.829 | -2.11 | 1.18 | -1.29 | -0.285 | -0.155 | -2.61
GAAAACAGCAAUUACCUUUGCA | -0.0426 | -1.17 | 0.37 | 0.734 | 0.0564 | -0.7 | 0.347 | -0.413 | 0.0135 | -0.261 | -0.427 | 0.212 | -1.34 | 0.263
GAACGCCUGUUCUUGCCAGGUGG | -0.416 | 0.0781 | 1.05 | -0.325 | -0.674 | 0.54 | 0.00732 | 0.431 | -1.79 | -0.992 | -1.24 | 1.57 | 0.125 | 0.419
